Test results taken from patent US10501493B2, “Broad spectrum antibiotics” (priority 2011, dated 2019).
≈ marks a conversion by molar mass, not a printed value. Like-named read-outs stand apart in the source and are kept apart here.

What was measured:
E. coli SPase = target: T1, E. coli SPase (Escherichia coli, UniProt P00803); assay: Enzymatic fluorogenic substrate cleavage assay for IC50; type: biochemical
T1 construct: Full length His-tagged E. coli SPase proteins were expressed in E. coli BL21(DE3); His-tag; made in house; host or cells: E. coli BL21(DE3)
Protocol: (§1) Full length His-tagged E. coli SPase proteins were expressed in E. coli BL21(DE3) containing the plasmid pET23-lepB, P. A. Smith et al. Chem Biol 2010, 1223-1231. Briefly, saturated overnight cultures grown in 20 ml of Luria-Bertani medium supplemented with ampicillin were subcultures into 1.5 L of Luria-Bertani, and shaken at 37° C. until an optical density at 600 nm of 0.4-0.5 was achieved. Protein expression was induced with Isopropyl β-D-1-thiogalactopyranoside (ITPG) at a final concentration of […], and purified using nickel affinity chromatography. Full length His-tagged S. aureus SPase protein was expressed similarly from E. coli BL21(DE3) containing the plasmid pCDF1-SaSpsB or pCDF1-SaSpsB(P29S) and purified similarly to the E. coli protein with the following exceptions. SPase protein was solubilized using 300 mM NaCl, 20 mM Tris pH 8.06, 5 mM Imidazole, 10% glycerol, 1% Triton X-100, prior to purification in Ni-NTA Superflow resin and resin bound protein was washed in a similar buffer containing 1% Elugent in place of Triton X-100 prior to protein eluted in wash buffer supplemented with 300 mM imidazole. Protein purify was judged to exceed 95% by visual inspection of SDS-PAGE followed by Comassie staining. All protein concentrations were determined by BCA assay.
(§2) In addition to the equilibrium binding assays, compound activity is also characterized by measuring inhibition of E. coli and S. aureus substrate cleavage reactions using fluorogenic peptides developed at RQx Pharmaceuticals. Briefly, two fluorogenic peptide substrates (decanoyl-LSSPA Y^NO2 A ? ADK^abzPD (SEQ ID NO: 1) and decanyol-LTPTAY^NO2 A ? ASKK^abzDD (SEQ ID NO: 2)) have been synthesized, where abz is the fluorescence donor 2-aminobenzamide, YNO2 is the fluorescence acceptor 3-nitrotyrosine, and the cleavage site is indicated with an arrow. These substrates are processed with a second order rate constant (Kcat/KM) of 10^5 M^−1s^−1 for E. coli and S. aureus SPase enzymes, and cleavage results in a greater than 10-fold increase in fluorescence signal (excitation at 314 nm, emission at 416 nm) as measured using a SpectraMax M2 fluorescence microplate reader. Two-folder serial dilutions of compound are prepared in cleavage reaction buffer consisting of: 50 mM Tris-HCl pH 8.0, 100 mM NaCl, 10% glycerol, 1 mM EDTA, detergent (1% NP-40 or 0.1% Elugent™ for E. coli LepB or S. aureus SpsB respectively) and either 2.5 nM of E. coli SPase enzyme or 10 nM of S. aureus SPase enzyme. 40 μl aliquots of the compound dilution series in the protein/buffer solution is transferred to black 384-well polypropylene plates, and 10 μl of fluorogenic peptide at a concentration of 100 μM is added to initiate the reaction. The increase in fluorescence, corresponding to substrate cleavage, is monitored continuously at room temperature for 30 minutes and initial reaction rates are calculated based in the linear increase in fluorescence from the initial 30 minutes of the reaction. Reaction rates are plotted as a function of compound concentration, and IC50 values are determined nonlinear regression analysis (SoftMax® Pro v5.4) of the sigmoidal dose-response curve.

S. aureus SPase = target: T2, S. aureus SPase (Staphylococcus aureus, UniProt P0A070); assay: as above; type: biochemical
T2 construct: Full length His-tagged S. aureus SPase protein was expressed similarly; His-tag; made in house; host or cells: E. coli BL21(DE3)
Protocol: as §1, §2

[1] = test system: E. col ATCC 25922 LepB(P84L); assay: In vitro antimicrobial activity, MIC by broth micro-dilution; type: cell-based, E. coli; settings: for MIC: Escherichia coli, ATCC25922, read-out: MIC class, E. col ATCC 25922 LepB(P84L)
Protocol: (§3) In vitro antimicrobial activity of each compound was determined by measuring minimal inhibitor concentrations (MICs) using the broth micro-dilution technique as approved by the Clinical and Laboratory Standards Institute (CLSI). The microbiological panel examined contains a number of bacterial species including E. coli MG1655, P. aeruginosa, S. aureus, and S. epidermidis. In addition, the panel includes previously described pseudo-isogenic strains of these four species (P. A. Smith et al. Chem Biol 2010, 1223-1231), in which a specific proline residue in SPase (called LepB in Gram-negative organisms an SpsB in Gram-positive organisms) has been mutated to a different amino acid. The resulting strains have increased susceptibility to the arylomycin class of antibiotics. Analysis of the strains lacking this proline residue will increases the dynamic range of the assay, and comparison of the sensitivities of the isogenic pairs provides ongoing confirmation that the activity gained through derivatization is specific to the inhibition of SPase. Briefly, bacterial streaks were grown on Mueller Hinton Agar II (Difco™) with or without 5% lysed horse blood for a period of 24 hours at either 35° C. or 28° C. Bacterial colonies were suspended in cation adjusted Mueller Hinton broth and diluted to a final concentration of 1*10^7 colony forming units/ml. Two-fold serial dilutions of each compound were arrayed into 96-well plates (100 μl final volume per well) and 5 ul of the bacterial suspension will be added. […] MICs were periodically checked plating serial dilutions of MIC wells and quantitatively determining viable colonies.

S. pneumoniae D39 = assay: as above; type: cell-based; settings: for MIC: Streptococcus pneumoniae, D39, read-out: MIC class, S. pneumoniae D39
Protocol: as §3

[2] = test system: S. aureus NCTC-8325 SpsB(P295); assay: as above; type: cell-based; settings: for MIC: Staphylococcus aureus, NCTC8325, read-out: MIC class, S. aureus NCTC-8325 SpsB(P295)
Protocol: as §3

S. epidermidis RP62A = assay: as above; type: cell-based; settings: for MIC: Staphylococcus epidermidis, RP62A, read-out: MIC class, S. epidermidis RP62A
Protocol: as §3

E. coli ATCC 25922 = assay: as above; type: cell-based; settings: for MIC: Escherichia coli, ATCC25922, read-out: MIC class, E. coli ATCC 25922
Protocol: as §3

S. aurues NCTC-8325 = assay: as above; type: cell-based, S. aureus; settings: for MIC: Staphylococcus aureus, NCTC8325, read-out: MIC class, S. aurues NCTC-8325
Protocol: as §3

Compound	IC50 (E. coli SPase)	IC50 (S. aureus SPase)	MIC [1]	MIC (S. pneumoniae D39)	MIC [2]	MIC (S. epidermidis RP62A)	MIC (E. coli ATCC 25922)	IC50 (E. coli SPase; fluorogenic peptide cleavage, read-out: IC50 class E. coli SPase)	IC50 (S. aureus SPase; fluorogenic peptide cleavage, read-out: IC50 class S. aureus SPase)	MIC class, E. col ATCC 25922 LepB(P84L) [1]	MIC class, S. pneumoniae D39 (S. pneumoniae D39)	MIC class, S. aureus NCTC-8325 SpsB(P295) [2]	MIC class, S. epidermidis RP62A (S. epidermidis RP62A)	MIC class, E. coli ATCC 25922 (E. coli ATCC 25922)	MIC (S. aurues NCTC-8325)	MIC class, S. aurues NCTC-8325 (S. aurues NCTC-8325; S. aurues NCTC-8325)
CCCCCCCCCCCCCCCC(=O)N(C)[C@H](CO)C(=O)N[C@H](Cc1ccccc1)C(=O)NCC(=O)N(C)[C@@H]1C(=O)N[C@@H](C)C(=O)N[C@H](C(=O)O)Cc2ccc(O)c(c2)-c2cc1ccc2O [Compound 39]	< 1 µM	< 1 µM	< 8 µg/mL	16 to 64 µg/mL (≈ 16.7 to 66.9 µM)	> 64 µg/mL	16 to 64 µg/mL (≈ 16.7 to 66.9 µM)	> 64 µg/mL									
CCCCCCCCCCCCCCCC(=O)N(C)[C@H](CO)C(=O)N[C@H](CCc1ccccc1)C(=O)NCC(=O)N(C)[C@@H]1C(=O)N[C@@H](C)C(=O)N[C@H](C(=O)O)Cc2ccc(O)c(c2)-c2cc1ccc2O [Compound 41]	< 1 µM	< 1 µM	> 64 µg/mL	> 64 µg/mL	> 64 µg/mL	< 8 µg/mL	> 64 µg/mL									
CCCCCCCCCCCCCCCC(=O)N(C)[C@H](CN)C(=O)N[C@H](C)C(=O)NCC(=O)N(C)[C@@H]1C(=O)N[C@@H](C)C(=O)N[C@H](C(=O)O)Cc2ccc(O)c(c2)-c2cc1ccc2O [Compound 52]								1 to 10 µM	< 1 µM	a (MIC >64 μg/ml)	b (MIC 16-64 μg/ml)	b (MIC 16-64 μg/ml)	b (MIC 16-64 μg/ml)	a (MIC >64 μg/ml)		
CCCCCCCCCCCCCCCC(=O)N[C@H](CCN)C(=O)N[C@H](C)C(=O)NCC(=O)N(C)[C@@H]1C(=O)N[C@@H](C)C(=O)N[C@H](C(=O)O)Cc2ccc(O)c(c2)-c2cc1ccc2O [Compound 53]	1 to 10 µM	< 1 µM	> 64 µg/mL	16 to 64 µg/mL (≈ 18.2 to 72.7 µM)	> 64 µg/mL	16 to 64 µg/mL (≈ 18.2 to 72.7 µM)	> 64 µg/mL									
CCCCCCCCCCCCCCCC(=O)N(C)[C@H](CO)C(=O)N[C@H](C)C(=O)NCC(=O)N(C)[C@@H]1C(=O)N[C@@H](C)C(=O)N[C@H](C(=O)NCCO)Cc2ccc(O)c(c2)-c2cc1ccc2O [Compound 54]	< 1 µM	1 to 10 µM	< 8 µg/mL	< 8 µg/mL	16 to 64 µg/mL (≈ 17.3 to 69.3 µM)	< 8 µg/mL	> 64 µg/mL									
CCCCCCCCCCCCCCCC(=O)N(C)[C@H](CO)C(=O)N[C@H](C)C(=O)NCC(=O)N(C)[C@@H]1C(=O)N[C@@H](C)C(=O)N[C@H](C(=O)OCCN)Cc2ccc(O)c(c2)-c2cc1ccc2O [Compound 55]	1 to 10 µM	1 to 10 µM	16 to 64 µg/mL (≈ 17.3 to 69.3 µM)	< 8 µg/mL	> 64 µg/mL	< 8 µg/mL	> 64 µg/mL									
CCCCCCCCCCCCCCCC(=O)N(C)[C@H](CO)C(=O)N[C@H](C)C(=O)NCC(=O)N(C)[C@@H]1C(=O)N[C@@H](C)C(=O)N[C@H](C(=O)N[C@@H](C)CO)Cc2ccc(O)c(c2)-c2cc1ccc2O [Compound 56]	1 to 10 µM	> 10 µM	> 64 µg/mL	16 to 64 µg/mL (≈ 17.1 to 68.2 µM)	> 64 µg/mL	< 8 µg/mL	> 64 µg/mL									
CCCCCCCCCCCCCCCC(=O)N(C)[C@H](CO)C(=O)N[C@H](C)C(=O)NCC(=O)N(C)[C@@H]1C(=O)N[C@@H](C)C(=O)N[C@H](C(=O)OC[C@H](C)N)Cc2ccc(O)c(c2)-c2cc1ccc2O [Compound 57]	1 to 10 µM	1 to 10 µM	16 to 64 µg/mL (≈ 17.1 to 68.2 µM)	16 to 64 µg/mL (≈ 17.1 to 68.2 µM)	> 64 µg/mL	< 8 µg/mL	> 64 µg/mL									
CCCCCCCCCCCCCCCC(=O)N(C)C(CO)C(=O)N[C@H](C)C(=O)NCC(=O)N(C)[C@@H]1C(=O)N[C@@H](C)C(=O)NC(C(=O)NCC(=O)C(=O)N(C)C)Cc2ccc(O)c(c2)-c2cc1ccc2O (stereo partly shown) [Compound 59]	< 1 µM	1 to 10 µM	16 to 64 µg/mL (≈ 16.1 to 64.4 µM)	16 to 64 µg/mL (≈ 16.1 to 64.4 µM)	> 64 µg/mL	< 8 µg/mL	> 64 µg/mL								> 64 µg/mL	
CCCCCCCCCCCCCCCC(=O)N(C)[C@H](CO)C(=O)N[C@H](C)C(=O)NCC(=O)N(C)[C@@H]1C(=O)N[C@@H](C)C(=O)N[C@H](C(=O)NCC(=O)NS(C)(=O)=O)Cc2ccc(O)c(c2)-c2cc1ccc2O [Compound 60]	< 1 µM	1 to 10 µM	< 8 µg/mL	< 8 µg/mL	> 64 µg/mL	< 8 µg/mL	> 64 µg/mL								> 64 µg/mL	
CCCCc1ccc(-c2ccc(C(=O)N(C)[C@H](CO)C(=O)N[C@H](C)C(=O)N[C@@H](CCCCN)C(=O)N(C)[C@@H]3C(=O)N[C@@H](C)C(=O)N[C@H](C(=O)O)Cc4ccc(O)c(c4)-c4cc3ccc4O)cc2)cc1 [Compound 96]										b (MIC 16-64 μg/ml)	a (MIC >64 μg/ml)	a (MIC >64 μg/ml)	b (MIC 16-64 μg/ml)	a (MIC >64 μg/ml)		a (MIC >64 μg/ml)
CCCCCCc1ccc(C(=O)N(C)[C@H](CO)C(=O)N[C@H](C)C(=O)N[C@@H](CCCCN)C(=O)N(C)[C@@H]2C(=O)N[C@@H](C)C(=O)N[C@H](C(=O)O)Cc3ccc(O)c(c3)-c3cc2ccc3O)cc1 [Compound 97]			16 to 64 µg/mL (≈ 17.7 to 70.9 µM)	> 64 µg/mL		16 to 64 µg/mL (≈ 17.7 to 70.9 µM)	> 64 µg/mL								> 64 µg/mL	
CCCCc1ccc(-c2ccc(C(=O)N[C@H](CO)C(=O)N[C@H](C)C(=O)N[C@@H](CCCCN)C(=O)N(C)[C@@H]3C(=O)N[C@@H](C)C(=O)N[C@H](C(=O)O)Cc4ccc(O)c(c4)-c4cc3ccc4O)cc2)cc1 [Compound 98]			< 8 µg/mL	> 64 µg/mL		16 to 64 µg/mL (≈ 17.1 to 68.4 µM)	> 64 µg/mL								> 64 µg/mL	
